Source: PubChem BioAssay AID1687

The compounds below were run against pyruvate kinase (Geobacillus stearothermophilus) (assay: modulators of bacterial pyruvate kinase activity – biochemical, Geobacillus stearothermophilus, confirmation (AID 1687)). Conditions: purified enzyme, LDH-coupled NADH absorbance 340 nm;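 active means compounds whose fitted half-maximal concentration is at most 10.5 micromolar; inactive means the rest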.

AC50, active:
O=C(CN1c2cccc3cccc(c23)S1(=O)=O)NCc1ccccc1OC(F)F 7.6 µM
CCn1c2ccccc2n2cc(-c3ccc4c(c3)OCO4)nc12 2 µM
CN(C)CCCN(C(=O)c1ccc(Cl)s1)c1nc2cc3c(cc2s1)OCO3 8.9 µM
NNC(=O)c1ccc(CN2c3cccc4cccc(c34)S2(=O)=O)cc1 4.9 µM
Cn1c2ccccc2n2cc(-c3ccc4c(c3)OCO4)nc12 1 µM
CCN(CC)CCn1c2ccccc2n2cc(-c3ccc4c(c3)OCO4)nc12 2.2 µM
C=CCn1c2ccccc2n2cc(-c3ccc4c(c3)OCO4)nc12 10.5 µM
CN(C)CCn1c2ccccc2n2cc(-c3ccc4c(c3)OCO4)nc12 1.7 µM
COc1cccc(CN2c3cccc4cccc(c34)S2(=O)=O)c1 5.5 µM
